Reference: BindingDB's records for doi:10.1021/jm00100a015 (Centre De Neurochimie Du Cnrs, 1992)

Biological target: GABA-A receptor (Rattus norvegicus)
Assay: Affinity for gamma-aminobutyric-acid A receptor measured by its ability to displace [3H]gabazine antagonist from rat brain preparations.

Compound | IC50 [nM]
Cc1cc(-c2ccccc2)nn(CCCC(=O)O)c1=N | 800
N=c1ccc(-c2ccsc2)nn1Cc1cc(=O)[nH]o1 | 88
